{"source": "patent US11369662B2", "about": "(The Medical College of Wisconsin, Inc., priority 2014, dated 2022)", "key": {"[1]": {"test_system": "U-937 cells", "experiment": "Agarose microdroplet assay of U-937 migration", "type": "cell-based", "conditions": "18-24 h, serum-containing media", "experimental": "Agarose microdroplet assay. The agarose microdroplet assay was performed to determine U-937 cellular migration, as previously described. 0.5×10^6 cells/ml U-937 target cells were harvested and washed in HBSS. Cells were spun at 2,000 rpm and were transferred to a graduated 15 ml glass conical tube. The cell concentration was adjusted in agarose medium, prepared from 2% low melting temperature Seaplaque agarose and medium containing 15% FBS, using a 1:4 volume-to-volume dilution. A 1 μl agarose droplet containing 1-10^5 target cells was placed in the center of each well of a 96-well flat-bottom tissue culture plate, in triplicate, using a gastight 0.05 ml Hamilton syringe (Hamilton Company, Reno, Nev.). Droplets were allowed to harden at 4° C. for 20 min. 200 μl chilled test media was applied to each well. […] The plate was incubated for 18-24 h at 37° C. and 5% CO2. Following incubation, the radius of each droplet was determined and target cell migration was measured at four directional points 900 from one another, using an inverted light microscope equipped with a gridded eyepiece, at 40× total magnification. Percent inhibition of each sample was quantified. The plate was incubated for an additional 24 h to measure recovery, and viability was determined by trypan blue exclusion.\nAgarose microdroplet assay. The agarose microdroplet assay was performed to determine U-937 cellular migration, as previously described {AdeCXCL121an, 1980 #1609}. 0.5×10^6 cells/ml U-937 target cells were harvested and washed in HBSS. Cells were spun at 2,000 rpm and were transferred to a graduated 15 ml glass conical tube. […] Following incubation, the radius of each droplet was determined and target cell migration was measured at four directional points 900 from one another, using an inverted light microscope equipped with a gridded eyepiece, at 40× total magnification. Percent inhibition of each sample was quantified. The plate was incubated for an additional 24 h to measure recovery, and viability was determined by trypan blue exclusion."}, "[2]": {"molecular_target": "T1, CXCR4 (Homo sapiens, UniProt P61073)", "T1 construct": "purchased Millipore", "T1 sequence (P61073 whole entry)": "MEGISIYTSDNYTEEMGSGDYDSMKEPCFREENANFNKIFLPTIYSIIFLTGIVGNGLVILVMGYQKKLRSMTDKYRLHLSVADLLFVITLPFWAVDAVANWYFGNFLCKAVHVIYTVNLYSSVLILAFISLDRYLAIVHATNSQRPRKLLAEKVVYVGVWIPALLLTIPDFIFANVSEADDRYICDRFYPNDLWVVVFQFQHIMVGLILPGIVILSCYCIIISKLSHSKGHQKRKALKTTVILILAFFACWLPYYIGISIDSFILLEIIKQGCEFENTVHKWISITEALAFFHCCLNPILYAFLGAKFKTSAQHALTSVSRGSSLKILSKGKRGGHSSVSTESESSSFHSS", "experiment": "CXCR4 internalization assay in HeLa cells", "type": "cell-based", "conditions": "80 ng/ml, 20 min, FACS surface expression", "experimental": "CXCR4 internalization assay. HeLa cells grown on 6-cm dishes were washed twice with PBS and detached from the surface of the plate by incubating with 350 μl Cellstripper cell dissociation solution (Mediatech, Va.) for 10 min at 37° C. Cells were collected in 4 ml PBS containing 0.1% BSA (Media Tech, Va.) by centrifugation. Cell pellets were re-suspended in 1.5 ml PBS-0.1% BSA and 5×10^5 cells were transferred to a fresh 5 ml polystyrene round bottom tube (BD falcon) and washed once with PBS+0.1% BSA and re-suspended in 250 μl PBS-0.1% BSA. […] Following treatment, 4 mL cold PBS was added to each tube, cells were collected by centrifugation and then fixed by re-suspending the pellet in 500 μl 4% paraformaldehyde (made in PBS) and incubating for 15 min at 37° C. Cells were collected by centrifugation and washed once with 4 mL PBS and then twice with PBS-0.1% BSA. […] CXCR4 surface expression was analyzed by flow cytometry (FACS-CANTO; Becton Dickinson) and analysis was performed using FlowJo v.9.3 software.\nCXCR4 internalization assay. […] CXCR4 surface expression was analyzed by flow cytometry (FACS-CANTO; Becton Dickinson) and analysis was performed using FlowJo v.9.3 software."}}}
{"substance": "CXCL12WT: wild type CXCL12 (stromal cell-derived factor-1/SDF-1), SEQ ID NO:1", "values": [{"measurement": "maximal inhibition of U-937 cell migration", "setting": "[1]", "value": "40.1±18", "unit": "%"}]}
{"substance": "CXCL122: constitutively dimeric variant of CXCL12 containing L36C/A65C mutations", "values": [{"measurement": "CXCR4 internalization", "setting": "[2]", "value": "nominal internalization"}]}
